Assay results taken from patent publication US9447100B2, “Substituted pyrazolo[1,5-A] pyrimidines as calcium receptor modulating agents” (Takeda Pharmaceutical Company Limited, priority 2002, dated 2016).
Counter-ions that a name gives are not always drawn.

Row | melting point | Compound
1 | 165 to 166 °C | CCC(CC)(NC(=O)c1c(C)nn2c1NC(c1ccccc1)CC2(C)C)c1ccc(C(C)O)cc1 (stereo not shown) [Example 978, N-(1-ethyl-1-(4-(1-hydroxyethyl)phenyl)propyl)-2,7,7-trimethyl-5-phenyl-4,5,6,7-tetrahydropyrazolo[1,5-a]pyrimidine-3-carboxamide]
2 | 152 to 153 °C | CCC(CC)(NC(=O)c1c(C)nn2c1NC(c1ccccc1F)CC2(C)C)c1ccc(N(C)C)cc1 (stereo not shown) (as salt: HCl) [Example 969, N-(1-(4-(dimethylamino)phenyl)-1-ethylpropyl)-5-(2-fluorophenyl)-2,7,7-trimethyl-4,5,6,7-tetrahydropyrazolo[1,5-a]pyrimidine-3-carboxamide]
3 | 133 to 134 °C | CCCCOC(=O)CCCOc1ccc(C(CC)(CC)NC(=O)c2cnn3c2NC(c2ccccc2)CC3(C)C)cc1 (stereo not shown) [Example 818, butyl 4-(4-(1-(((7,7-dimethyl-5-phenyl-4,5,6,7-tetrahydropyrazolo[1,5-a]pyrimidin-3-yl)carbonyl)amino)-1-ethyl-propyl)phenoxy)butanoate]
4 | 179 to 180 °C | CCC(CC)(NC(=O)c1c(C)nn2c1N[C@@H](c1ccccc1)CC2(C)C)c1ccc(I)cc1 (as salt: HCl) [Example 1073, (5R)-N-(1-ethyl-1-(4-iodophenyl)propyl)-2,7,7-trimethyl-5-phenyl-4,5,6,7-tetrahydropyrazolo[1,5-a]pyrimidine-3-carboxamide]
5 | 171 to 172 °C | CCC(CC)(NC(=O)c1c(C)nn2c1NC(c1cccs1)CC2(C)C)c1ccccc1 (stereo not shown) (as salt: HCl) [Example 958, N-(1-ethyl-1-phenylpropyl)-2,7,7-trimethyl-5-(2-thienyl)-4,5,6,7-tetrahydropyrazolo[1,5-a]pyrimidine-3-carboxamide]
6 | 139 to 140 °C | CCCCOC(=O)c1ccc(C(CC)(CC)NC(=O)c2cnn3c2NC(c2ccccc2)CC3(C)C)cc1 (stereo not shown) [Example 757, butyl 4-(1-(((7,7-dimethyl-5-phenyl-4,5,6,7-tetrahydropyrazolo[1,5-a]pyrimidin-3-yl)carbonyl)amino)-1-ethylpropyl)benzoate]
7 | 247 to 249 °C | CCC1(CC)C[C@H](O)CN1C(=O)c1cnn2c1N[C@@H](c1ccccc1)CC2(C)C (as salt: HCl) [Example 1118, (3S)-1-(((5R)-7,7-dimethyl-5-phenyl-4,5,6,7-tetrahydropyrazolo[1,5-a]pyrimidin-3-yl)carbonyl)-5,5-diethyl-3-pyrrolidinol]
8 | 172 to 174 °C | CCC1(CC)C[C@@H](OCc2ccccc2)CN1C(=O)c1cnn2c1N[C@H](c1ccccc1)CC2(C)C [Example 1105, (5S)-3-(((4R)-4-(benzyloxy)-2,2-diethyl-1-pyrrolidinyl)carbonyl)-7,7-dimethyl-5-phenyl-4,5,6,7-tetrahydropyrazolo[1,5-a]pyrimidine]
9 | 120 to 121 °C | CCC(CC)(NC(=O)c1cnn2c1N(C)C(c1ccccc1)CC2(C)C)c1ccc(C)cc1 (stereo not shown) (as salt: HCl) [Example 827, N-(1-ethyl-1-(4-methylphenyl)propyl)-4,7,7-trimethyl-5-phenyl-4,5,6,7-tetrahydropyrazolo[1,5-a]pyrimidine-3-carboxamide]
10 | 226 to 227 °C | CC1(C)C[C@@H](c2ccccc2)Nc2c(C(=O)NC34CC5CC(CC(C5)C3)C4)cnn21 [Example 1029, (5S)-N-1-adamantyl-7,7-dimethyl-5-phenyl-4,5,6,7-tetrahydropyrazolo[1,5-a]pyrimidine-3-carboxamide]
11 | 139 to 140 °C | CCC(CC)(NC(=O)c1c(C)nn2c1NC(c1ccccc1F)CC2(C)C)c1ccc(C)cc1 (stereo not shown) [Example 962, N-[1-ethyl-1-(4-methylphenyl)propyl]-5-(2-fluorophenyl)-2,7,7-trimethyl-4,5,6,7-tetrahydropyrazolo[1,5-a]pyrimidine-3-carboxamide]
12 | 147 to 148 °C | C=CCc1ccc(C(CC)(CC)NC(=O)c2cnn3c2NC(c2ccccc2)CC3(C)C)cc1 (stereo not shown) [Example 705, N-(1-(4-allylphenyl)-1-ethylpropyl)-7,7-dimethyl-5-phenyl-4,5,6,7-tetrahydropyrazolo[1,5-a]pyrimidine-3-carboxamide]
13 | 152 to 155 °C | CCC(CC)(NC(=O)c1c(C)nn2c1NC(c1cccc(F)c1)CC2(C)C)c1ccc(C)cc1 (stereo not shown) (as salt: HCl) [Example 972, N-(1-ethyl-1-(4-methylphenyl)propyl)-5-(3-fluorophenyl)-2,7,7-trimethyl-4,5,6,7-tetrahydropyrazolo[1,5-a]pyrimidine-3-carboxamide]

Continued, compound first:

Row | Compound | melting point
14 | CCC(CC)(NC(=O)c1cnn2c1NC(c1ccccc1)CC2(CC)CC)c1ccc(C(F)(F)F)cc1 (stereo not shown) [Example 185, 7,7-diethyl-N-(1-ethyl-1-(4-(trifluoromethyl)phenyl)propyl)-5-phenyl-4,5,6,7-tetrahydropyrazolo[1,5-a]pyrimidine-3-carboxamide] | 174 to 175 °C
15 | CCC(CC)(NC(=O)c1cnn2c1NC(c1ccccc1)CC2(C)C)c1cccc(C(F)(F)F)c1 (stereo not shown) [Example 434, N-(1-ethyl-1-(3-(trifluoromethyl)phenyl)propyl)-7,7-dimethyl-5-phenyl-4,5,6,7-tetrahydropyrazolo[1,5-a]pyrimidine-3-carboxamide] | 166 to 167 °C
16 | O=C(c1cnn2c1N[C@H](c1ccccc1)C[C@@H]2C(F)(F)F)N(C1CCCCC1)C1CCCCC1 (stereo in doubt) [Example 373, N,N-dicyclohexyl-5-phenyl-7-(trifluoromethyl)-4,5,6,7-tetrahydropyrazolo[1,5-a]pyrimidine-3-carboxamide] | 243 to 244 °C
17 | CCC(CC)(NC(=O)c1cnn2c1NC(c1ccccc1)CC2(C)C)c1ccc(-c2ccc(OC)nc2)cc1 (stereo not shown) [Example 677, N-(1-ethyl-1-(4-(6-methoxy-3-pyridinyl)phenyl)propyl)-7,7-dimethyl-5-phenyl-4,5,6,7-tetrahydropyrazolo[1,5-a]pyrimidine-3-carboxamide] | 172 to 173 °C
18 | CCC(CC)(NC(=O)c1cnn2c1NC(c1ccccc1)CC2(C)C)c1ccc(-c2ccco2)cc1 (stereo not shown) [Example 584, N-(1-ethyl-1-(4-(2-furyl)phenyl)propyl)-7,7-dimethyl-5-phenyl-4,5,6,7-tetrahydropyrazolo[1,5-a]pyrimidine-3-carboxamide] | 167 to 168 °C
19 | CCC(CC)(NC(=O)c1cnn2c1NC(c1ccccc1)CC2(C)C)c1ccc(I)cc1 (stereo not shown) [Example 667, N-(1-ethyl-1-(4-iodophenyl)propyl)-7,7-dimethyl-5-phenyl-4,5,6,7-tetrahydropyrazolo[1,5-a]pyrimidine-3-carboxamide] | 182 to 183 °C
20 | CC1(C)CC(c2ccccc2)Nc2c(C(=O)NC3(C(=O)O)CCCCC3)cnn21 (stereo not shown) [Example 625, 1-(((7,7-dimethyl-5-phenyl-4,5,6,7-tetrahydropyrazolo[1,5-a]pyrimidin-3-yl)carbonyl)amino)cyclo-hexanecarboxylic acid] | 215 to 216 °C
21 | CC1(C)CC(c2ccccc2)Nc2c(C(=O)NC3(CO)CCCCC3)cnn21 (stereo not shown) [Example 644, N-(1-(hydroxymethyl)cyclo-hexyl)-7,7-dimethyl-5-phenyl-4,5,6,7-tetrahydropyrazolo[1,5-a]pyrimidine-3-carboxamide] | 175 to 176 °C
22 | CCC(CC)(NC(=O)c1cnn2c1NC(c1ccccc1)CC2(C)C)c1ccc(C#N)cc1 (stereo not shown) [Example 574, N-(1-(4-cyanophenyl)-1-ethylpropyl)-7,7-dimethyl-5-phenyl-4,5,6,7-tetrahydropyrazolo[1,5-a]pyrimidine-3-carboxamide] | 237 to 238 °C
23 | C#CC1(NC(=O)c2cnn3c2NC(c2ccccc2)CC3(C)C)CCCCC1 (stereo not shown) [Example 587, N-(1-ethynylcyclohexyl)-7,7-dimethyl-5-phenyl-4,5,6,7-tetrahydropyrazolo[1,5-a]pyrimidine-3-carboxamide] | 201 to 202 °C
24 | CC(C)(NC(=O)c1cnn2c1NC(c1ccccc1)CC2C(F)(F)F)c1cccc2ccccc12 (stereo not shown) [Example 368, N-(1-methyl-1-(1-naphthyl)ethyl)-5-phenyl-7-(trifluoromethyl)-4,5,6,7-tetrahydropyrazolo[1,5-a]pyrimidine-3-carboxamide] | 221 to 222 °C
25 | CC1(C)CC(c2ccccc2)Nc2c(C(=O)N(Cc3ccc(C(F)(F)F)cc3)Cc3ccc(C(F)(F)F)cc3)cnn21 (stereo not shown) [Example 409, 7,7-dimethyl-5-phenyl-N,N-bis(4-(trifluoromethyl)benzyl)-4,5,6,7-tetrahydropyrazolo[1,5-a]pyrimidine-3-carboxamide] | 164 to 165 °C
26 | COc1ccccc1C1CC(C)(C)n2ncc(C(=O)NC34CC5CC(CC(C5)C3)C4)c2N1 (stereo not shown) [Example 581, N-1-adamantyl-5-(2-methoxyphenyl)-7,7-dimethyl-4,5,6,7-tetrahydropyrazolo[1,5-a]pyrimidine-3-carboxamide] | 280 to 282 °C
27 | O=C(NC12CC3CC(CC(C3)C1)C2)c1cnn2c1NC(c1ccccc1)CC21CCCC1 (stereo not shown) [Example 183, N-(1-adamantyl)-5′-phenyl-5′,6′-dihydro-4′H-spiro[cyclopentane-1,7′-pyrazolo[1,5-a]pyrimidine]-3′-carboxamide] | 259 to 261 °C
28 | NC(=O)c1cnn2c1N[C@H](c1ccccc1)C[C@@H]2C(F)(F)F (stereo in doubt) [Example 403, 5-phenyl-7-(trifluoromethyl)-4,5,6,7-tetrahydropyrazolo[1,5-a]pyrimidine-3-carboxamide] | 277 to 278 °C
29 | CCC1(CC)CC(c2ccccc2)Nc2c(C(=O)O)cnn21 (stereo not shown) [Example 37, 7,7-diethyl-5-phenyl-4,5,6,7-tetrahydropyrazolo[1,5-a]pyrimidine-3-carboxylic acid] | 158 to 160 °C
30 | CCc1ccc(C(CC)(CC)NC(=O)c2cnn3c2NC(c2ccccc2)CC3(C)C)cc1 (stereo not shown) [Example 647, N-(1-ethyl-1-(4-ethylphenyl)propyl)-7,7-dimethyl-5-phenyl-4,5,6,7-tetrahydropyrazolo[1,5-a]pyrimidine-3-carboxamide] | 156 to 157 °C
31 | O=C(NC1(C(=O)O)CCCCC1)c1cnn2c1N[C@H](c1ccccc1)C[C@@H]2C(F)(F)F (stereo in doubt) [Example 369, 1-(((5-phenyl-7-(trifluoromethyl)-4,5,6,7-tetrahydropyrazolo[1,5-a]pyrimidin-3-yl)carbonyl)amino)cyclohexane carboxylic acid] | 236 to 237 °C
